Article PMC11513924, “Addressing the Intracellular Vestibule of the Plasmodial Lactate Transporter PfFNT by p-Substituted Inhibitors Amplifies In Vitro Activity” (Journal of Medicinal Chemistry, 2024)
Like-named read-outs stand apart in the source and are kept apart here.

Experiments:
[1] = Microsomal clearance and half-life; format: in vitro ADME, human; conditions: for human liver microsomes Clint / half-life at 1 µM: 1 μM compound, 0.4 mg mL^–1 protein; for half-life at 1 µM: human, pooled human liver microsomes, pH 7.4, read-out: human liver microsomes t1/2
Protocol: (§1) Clearance, half-life and plasma protein binding were assayed at TGC LifeScience, Kolkata, India, as described before.[36] Test compounds were incubated in duplicate in 96-well plates at 1 μM concentration with pooled human liver microsomes in 0.1 M phosphate buffer, pH 7.4 (0.4 mg mL^–1 final protein concentration; XenoTech, Lenexa, KS) in the presence and absence of 1 mM NADPH. Metabolism reactions were stopped by addition of 300 μL of ice-cold acetonitrile containing carbamazepine at 0.0236 μg mL^–1 as an internal standard, collection and analysis of the supernatant by LC–MS/MS (Agilent Rapid Resolution HPLC, AB SCIEX 4500 MS). The relative loss of the test compound over time was used to determine the first order rate constant for calculation of the in vitro intrinsic clearance and half-life.[37] Plasma protein binding was determined by ultracentrifugation from pooled human plasma spiked with 5 μM test compound. Aliquots were transferred immediately (total plasma concentration) or after 1 h at 37 °C (protein bound fraction) to ice-cold acetonitrile containing 0.0236 μg mL^–1 carbamazepine as an internal standard, ultracentrifuged for 4 h at 37 °C (Beckman Optima L-80XP), and analyzed by LC–MS/MS (Agilent Rapid Resolution HPLC, AB SCIEX 4500 QTRAP MS).

PfFNT [2] = target: T1, PfFNT (Plasmodium falciparum, UniProt O77389); assay: Fluorescence cross-correlation spectroscopy (FCCS) competition binding to solubilized PfFNT-GFP
T1 construct: expressed in transfected cells; membranes solubilized
T1 sequence (O77389 1-309): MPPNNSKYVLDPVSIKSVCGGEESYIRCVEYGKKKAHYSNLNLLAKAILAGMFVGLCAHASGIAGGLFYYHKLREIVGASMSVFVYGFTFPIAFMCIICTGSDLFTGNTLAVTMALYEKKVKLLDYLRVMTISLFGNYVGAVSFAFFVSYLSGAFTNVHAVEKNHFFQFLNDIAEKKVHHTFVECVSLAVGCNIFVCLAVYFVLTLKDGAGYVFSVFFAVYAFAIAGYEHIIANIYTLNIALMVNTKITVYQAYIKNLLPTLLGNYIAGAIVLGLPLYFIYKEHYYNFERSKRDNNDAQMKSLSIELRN
Method in brief: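 Solubilized membranes from stably transfected cells expressing C-terminally GFP-tagged PfFNT were competed against BH267.meta-DY647 tracer, with competitor titrated from 100 pM to 100 μM. IC50 came from the dual-labeled complex concentration, recorded 10 × 5 s with 488/633 nm excitation; Ki calculated by Cheng-Prusoff from the tracer KD.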

[3] = Blood levels of compound in the SCID mouse model; format: in vivo
albumin = assay: Plasma protein (albumin) binding by ultracentrifugation; format: in vitro ADME; conditions: pooled human plasma; for albumin binding: 5 μM
Protocol: as §1

HEK293 cells = format: cell-based; conditions: human
Protocol: (§2) HEK293T and HepG2 cells were precultured in Dulbecco’s modified Eagle medium with 10% fetal bovine serum (FBS, Gibco, #10270106) in 96-well plates (Sarstedt, TC-treated, #83.3924) at a density of 20,000 cells per well. For ATP quantification, commercial CellTiterGlo was used according to the manufacturer’s instructions. For the resazurin assay, the culture medium was removed, and the cells were incubated in 120 μL of a 66 μM resazurin solution in PBS (SigmaAldrich, #R7017) at 37 °C for 2 h, for fluorescence read-out (λex/λem = 544/590 nm) using a microplate reader (Spark, Tecan Group). Nuclei were counted by microscopy (ImageXpress MicroXL, Molecular Devices) after fixation with 4% paraformaldehyde in PBS, and 15 min incubation at room temperature with Hoechst33342. Quantification was done using the “Cell Proliferation High-Throughput” algorithm (MetaXpress Software, Molecular Devices). All values were normalized to vehicle control (DMSO).

HepG2 cells = format: cell-based; conditions: human
Protocol: as §2

PfFNT [4] = target: T1, PfFNT; assay: Yeast-based PfFNT 14C-lactate transport assay; format: cell-based
Protocol: Lactate transport functionality of PfFNT was assayed as described before.[4] Briefly, Saccharomyces cerevisiae W303-1A jen1Δady2Δcells[32] (MATa, can1-100, ade2-loc, his3-11-15, leu2-3,-112, trp1-1-1, ura3-1, jen1::kanMX4, ady2::hphMX4) kindly provided by M. Casal expressing PfFNT was grown at 29 °C to an OD600 of 1 (±0.1). Harvested cells were resuspended to an OD600 of 50 (±5) in 50 mM HEPES/Tris, pH 6.8 (±0.1). 10–15 min prior to the assay, 80 μL of yeast suspension were added to 1 μL of DMSO with or without inhibitor in a 1.5 mL reaction tube at 18 °C. Twenty μL of L-lactate solution spiked with [1-^14C]-L-lactate (Hartmann Analytic) was added yielding a 1 mM inward gradient with 0.04 μCi label. Transport was stopped after 30 s by abrupt dilution with 1 mL of ice-cold water, vacuum filtration via GF/C filter membranes (Whatman), and washing with 7 mL of ice-cold water. The radio label was analyzed by liquid scintillation counting in 3 mL of scintillation cocktail (Rotiszint eco plus, Carl Roth) using a Packard TriCarb 2900 TR (PerkinElmer Inc.).
Transport assays in yeast were done in triplicate biological replicates. At least nine technical replicates were measured around the IC50 value, concentrations with no or full inhibition were determined from at least three technical replicates. EC50-values were determined from 2 to 4 biological replicates. IC50 and EC50 curves were fitted by the Hill equation with variable slope (Graph Pad Prism 10). Error bars denote ± SEM (for n ≥ 3) or ± range (for n = 2). For the EC50-value of 7a the error of the fitting of the curve is given. Cytotoxicity was determined from biological triplicates; error is shown as SEM.

| SMILES | human liver microsomes Clint [1] [mL min^–1 kg^–1] | half-life at 1 µM [1] [h] | Ki (PfFNT [2]) [nM] | blood concentration (peak) ([3]; oral 4 × 50 mg kg^–1) [μg mL^–1] | half-life ([3]; whole blood, oral 4 × 50 mg kg^–1, read-out: half-life from modeled blood profile) [h] | unbound fraction in plasma (albumin) [%] | albumin binding (albumin) [%] | concentration above which nuclei count (proliferation) starts to decline slightly (HEK293 cells) | concentration above which nuclei count (proliferation) starts to decline slightly (HepG2 cells) | IC50 (PfFNT [4]; 14C-lactate transport, PfFNT wild type, read-out: IC50 (transport, yeast)) [nM] | microsomal clearance, times faster than that of 2 ([1]; human liver microsomes) [times] | IC50 (PfFNT [4]) [nM] |
| --- | --- | --- | --- | --- | --- | --- | --- | --- | --- | --- | --- | --- |
| CCCNc1ccc(C(=O)/C=C(\O)C(F)(F)C(F)(F)F)cn1 [7e, 4,4,5,5,5-Pentafluoro-3-hydroxy-1-(6-(propylamino)pyridin-3-yl)pent-2-en-1-one] | 462.00 | 0.05 | 22 ± 8 | ~2 | 2 to 4 | 1.54 | 98.46 | above 10 μM | above 10 μM | 200 ± 20 | – | – |
| CC(=O)Nc1ccc(C(=O)/C=C(\O)C(F)(F)C(F)(F)F)cn1 [8a, N-[5-(4,4,5,5,5-Pentafluoro-3-hydroxypent-2-enoyl)pyridin-2-yl]acetamide] | 10.64 | 2.17 | 35 ± 8 | – | – | 6.31 | 93.69 | above 10 μM | above 10 μM | – | 2.7 | 210 ± 10 |
